Results as given in article PMC3085641 (Bioorganic & medicinal chemistry letters, 2011).

Target: dopamine transporter (DAT) (Rattus norvegicus, UniProt P23977)
Assay: biochemical

dopamine transporter (DAT), sequence (P23977 whole entry): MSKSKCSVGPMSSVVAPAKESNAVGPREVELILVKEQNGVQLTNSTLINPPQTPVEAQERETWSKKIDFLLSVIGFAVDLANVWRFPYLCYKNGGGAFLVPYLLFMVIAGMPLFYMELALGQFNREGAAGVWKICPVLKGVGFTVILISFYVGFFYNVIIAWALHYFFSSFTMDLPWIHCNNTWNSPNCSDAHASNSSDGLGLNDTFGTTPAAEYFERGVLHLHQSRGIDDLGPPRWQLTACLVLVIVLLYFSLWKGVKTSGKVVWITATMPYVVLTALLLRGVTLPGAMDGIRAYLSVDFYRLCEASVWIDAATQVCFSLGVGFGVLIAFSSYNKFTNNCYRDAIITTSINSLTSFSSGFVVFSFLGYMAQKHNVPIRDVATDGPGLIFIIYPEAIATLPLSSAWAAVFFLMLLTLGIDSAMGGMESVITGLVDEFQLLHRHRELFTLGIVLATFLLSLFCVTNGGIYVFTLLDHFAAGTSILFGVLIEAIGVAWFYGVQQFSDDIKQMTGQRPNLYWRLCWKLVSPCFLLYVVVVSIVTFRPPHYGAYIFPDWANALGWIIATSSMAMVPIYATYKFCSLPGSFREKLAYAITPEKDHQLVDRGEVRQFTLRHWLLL

CN1C2CCC1[C@@H](CNc1ccc(Br)nc1)[C@@H](c1ccc(Cl)cc1)C2 (stereo partly shown) [Compound 6b]
Ki: 17 nM
